# From patent US20250281523A1, “SULFATED GLYCOSAMINOGLYCAN COMPOUNDS, METHODS, AND USES THEREOF” (California Institute of Technology, priority 2024, published 2025)
# Tests used:
# FGF2 = biological target: T1, FGF2 (Homo sapiens, UniProt P09038); experiment: HS tetrasaccharide microarray binding assay, FGF2; conditions: glycan microarray; for relative binding of FGF2: compound 50 μM, normalized to the compound with greatest binding
# T1 construct: purchased Sino Biological
# Procedure: (§1) Heparan sulfate tetrasaccharide microarray fabrication. HS oligosaccharides were dissolved in sodium phosphate buffer (pH 8.5, 50 mM) in 9 concentrations: 200 μM, 100 μM, 50 μM, 25 μM, 12.5 μM, 6.25 μM, 3.13 μM, 1.57 μM, 0.79 μM. The robotic arrayer SX (from Scienion, Berlin, Germany) delivered 414 pL of the solution containing oligosaccharides (9 spots per concentration) to the array slides using dispensing nozzle PDC80, P-2040, under ˜50% relative humidity at 20° C. […] The slides were incubated in a chamber with saturated (NH4)2SO4 solution (81% relative humidity) for 24 h at 20° C., and unreacted HS oligosaccharides were removed from the slides by rinsing with deionized water. The remaining N-hydroxysuccinimide (NHS) ester groups were blocked by placing slides in a solution containing 50 mM ethanolamine in PBST (137 mM NaCl, 13 mM Na2HPO4, 1.6 mM NaH2PO4, 2.7 mM KCl, 0.010% Tween-20) at 50° C. for 1.5 h. Slides were rinsed several times with deionized water, dried by centrifugation, and stored before use.
# (§2) HS tetrasaccharide microarray binding assay and array slide processing. The slide was blocked with 10% BSA in TBST (4.0 mL) with gentle rocking at RT for 1 h, followed by submerging in TBST. This condition was empirically determined to reduce nonspecific binding of proteins to the microarray and to provide optimal signal-to-noise ratios. Next, 5.0 μL of the primary detection protein ([…], 0.50 μg/mL) solution was transferred to 2.5 mL of TBST w/1% BSA in a chamber and the slide was incubated with gentle shaking for 1 h at RT. The slide was then washed two times for 5 min each in TBST (4.0 mL) while gently rocking. After the washes, the slide was incubated with the appropriate biotinylated antibody ([…], 0.50 μg/mL) in 1% BSA in TBST solution (3.0 mL) with gentle rocking for 1 h. The slide was then washed two times for 5 min in TBST (5.0 mL) while gently rocking. Next, the slide was incubated with 4.0 mL of Alexa Fluor 647-conjugated streptavidin detection solution (1.0 μg/mL in TBST w/1% BSA) in the dark with gentle rocking for 1 h, washed with TBST (5.0 mL, two times) followed by PBS (45 mL, two times) and ddH2O (45 mL, two times), and then dried under a gentle stream of 0.2 micron-filtered air. For his-tagged FGF2, detection was accomplished with an AF647-labeled anti-his antibody. All incubations and washes were carried out at RT unless otherwise noted. The microarray was scanned and analyzed at 647 nm using an Agilent G2565CA Microarray Scanner, and fluorescence quantification was performed using ImageJ software with correction for local background. To ensure accurate signal quantification, the average signal intensity was calculated over a fixed area for all spots. Results were plotted with Prism 9 software at a single concentration as background corrected fluorescence values normalized to the compound with the highest signal. Bar graphs represent the mean±SD for each compound (50 μM) in nonuplicate. Each experiment was performed 2-3 times. Heat maps were generated in Excel with columns sorted by sulfation status of the amino positions and rows sorted by sulfation status of the 2-O- and 6-O-hydroxyl groups.
# CXCL8 (interleukin-8) = biological target: T2, CXCL8 (interleukin-8) (Homo sapiens, UniProt P10145); experiment: HS tetrasaccharide microarray binding assay, CXCL8; conditions: glycan microarray, compound 50 μM, normalized to the compound with greatest binding
# T2 construct: recombinant human IL-8 (CXCL8) (77 a.a.) (>95% purity); purchased Peprotech
# T2 sequence (P10145 23-99 limits assumed): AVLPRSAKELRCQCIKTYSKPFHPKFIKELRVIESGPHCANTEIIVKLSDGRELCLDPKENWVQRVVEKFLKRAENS
# Procedure: as §1, §2
# FGF4 = biological target: T3, FGF4 (Homo sapiens, UniProt P08620); experiment: HS tetrasaccharide microarray binding assay, FGF4; conditions: glycan microarray, compound 50 μM, normalized to the compound with greatest binding
# T3 construct: purchased Peprotech
# T3 sequence (P08620 31-206): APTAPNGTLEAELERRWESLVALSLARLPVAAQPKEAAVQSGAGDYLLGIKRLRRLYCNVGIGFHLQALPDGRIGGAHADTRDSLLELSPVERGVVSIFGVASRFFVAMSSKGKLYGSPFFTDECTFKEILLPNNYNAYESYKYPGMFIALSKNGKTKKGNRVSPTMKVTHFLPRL
# Procedure: as §1, §2
# T1 sequence (P09038 143-288): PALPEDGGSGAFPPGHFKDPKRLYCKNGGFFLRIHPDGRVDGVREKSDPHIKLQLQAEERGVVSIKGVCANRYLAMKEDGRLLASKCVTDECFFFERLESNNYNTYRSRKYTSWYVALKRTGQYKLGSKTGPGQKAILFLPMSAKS
Substance,FGF2 binding (in words) (FGF2),relative binding of CXCL8 (CXCL8 (interleukin-8)),relative binding of FGF4 (FGF4),relative binding of FGF2 (FGF2)
GlcNAc-IdoA2S-GlcNS6S-IdoA-R [Compound 34],abolished FGF2 binding,–,–,–
GlcNS6S-IdoA-GlcNS6S-IdoA2S-R [Compound 52],–,43%,–,45%
GlcNS-IdoA2S-GlcNAc-IdoA-R [Compound 15],–,–,16%,–
GlcNS6S-IdoA-GlcNS6S-IdoA-R [Compound 40],–,–,52%,3%
GlcNS6S-IdoA2S-GlcNAc-IdoA-R [Compound 43],–,–,16%,–
GlcNAc6S-IdoA2S-GlcNAc6S-IdoA2S-R [Compound 61],–,–,–,2%
GlcNS6S-IdoA2S-GlcNAc-IdoA2S-R [Compound 55],–,–,43%,–
GlcNS-IdoA-GlcNS6S-IdoA2S-R [Compound 24],–,63%,–,–
GlcNS6S-IdoA-GlcNAc-IdoA2S-R [Compound 31],abolished FGF2 binding,–,–,–
GlcNAc6S-IdoA2S-GlcNS-IdoA-R [Compound 42],abolished FGF2 binding,–,–,–
GlcNS-IdoA2S-GlcNS-IdoA2S-R [Compound 28],–,63%,42%,–
GlcNS-IdoA2S-GlcNS6S-IdoA-R [Compound 36],–,49%,–,–
GlcNS-IdoA2S-GlcNS6S-IdoA2S-R [Compound 48],–,61%,49%,77%

# Second part, the substance after the results:
FGF2 binding (in words) (FGF2),relative binding of CXCL8 (CXCL8 (interleukin-8)),relative binding of FGF4 (FGF4),relative binding of FGF2 (FGF2),Substance
–,53%,83%,–,GlcNS6S-IdoA2S-GlcNAc6S-IdoA-R [Compound 59]
abolished FGF2 binding,–,–,–,GlcNAc-IdoA2S-GlcNS-IdoA-R [Compound 14]
–,75%,100%,70%,GlcNS6S-IdoA2S-GlcNAc6S-IdoA2S-R [Compound 63]
–,3.3%,–,0.7%,GlcNS-IdoA-GlcNAc6S-IdoA-R [Compound 11]
–,–,27%,28%,GlcNAc6S-IdoA2S-GlcNS6S-IdoA2S-R [Compound 62]
–,100%,95%,–,GlcNS-IdoA2S-GlcNAc6S-IdoA2S-R [Compound 47]
–,–,81%,100%,GlcNS6S-IdoA2S-GlcNS6S-IdoA2S-R [Compound 64]
abolished FGF2 binding,–,–,–,GlcNS-IdoA-GlcNAc-IdoA2S-R [Compound 7]
–,47%,32%,–,GlcNAc-IdoA2S-GlcNS6S-IdoA2S-R [Compound 46]
abolished FGF2 binding,29%,–,2%,GlcNS-IdoA-GlcNAc6S-IdoA2S-R [Compound 23]
–,17%,43%,2%,GlcNS6S-IdoA-GlcNAc6S-IdoA-R [Compound 39]
–,43%,38%,39%,GlcNS6S-IdoA2S-GlcNS6S-IdoA-R [Compound 60]
–,–,56%,63%,GlcNS6S-IdoA2S-GlcNS-IdoA2S-R [Compound 56]
–,43%,–,–,GlcNAc-IdoA2S-GlcNS-IdoA2S-R [Compound 26]
–,25%,35%,–,GlcNS-IdoA2S-GlcNAc-IdoA2S-R [Compound 27]
–,33%,44%,38%,GlcNS-IdoA2S-GlcNAc6S-IdoA-R [Compound 35]
abolished FGF2 binding,47%,67%,3%,GlcNS6S-IdoA-GlcNAc6S-IdoA2S-R [Compound 51]
abolished FGF2 binding,–,10%,–,GlcNAc6S-IdoA2S-GlcNS6S-IdoA-R [Compound 58]
